Source: patent publication US12060355B2, “Compounds for use in the treatment of fascioliasis” (Merck Patent GmbH, priority 2018, dated 2024)

System: human HepG2 cell lines
Format: cell-based
Conditions: human HepG2 cell line

`Fc1ccc(-c2cn3c(-c4ccc5[nH]ncc5c4F)c(C(F)(F)F)nc3cn2)cc1C1CCC1` [Example 82, 6-(3-Cyclobutyl-4-fluoro-phenyl)-3-(4-fluoro-1H-indazol-5-yl)-2-trifluoromethyl-imidazo[1,2-a]pyrazine] was tested, and the “Cytotox HepG2” value was 6.1 µM.
In the case of `CC(C)c1cc(-c2cn3c(-c4ccc5[nH]ncc5c4F)c(C(F)(F)F)nc3cn2)ccc1F` [Example 67, 3-(4-Fluoro-1H-indazol-5-yl)-6-(4-fluoro-3-isopropyl-phenyl)-2-trifluoromethyl-imidazo[1,2-a]pyrazine], the “Cytotox HepG2” value is reported as 17.0 µM.
With `CC(C)c1nc2cnc(-c3cccc(S(F)(F)(F)(F)F)c3)cn2c1-c1c(F)cc(O)cc1F` [Example 39, 3,5-difluoro-4-[2-(propan-2-yl)-6-[3-(pentafluorosulfanyl)phenyl]imidazo[1,2-a]pyrazin-3-yl]phenol] the “Cytotox HepG2” value was 6.6 µM.
`Oc1cc(F)c(-c2c(C3CC3)nc3cnc(-c4ccc(F)c(C(F)(F)F)c4)cn23)c(F)c1` [Example 34, 4-(2-cyclopropyl-6-(4-fluoro-3-(trifluoromethyl)phenyl)imidazo[1,2-a]pyrazin-3-yl)-3,5-difluorophenol] was tested, and the “Cytotox HepG2” value was 8.9 µM.
With `Oc1cc(F)c(-c2c(C3CCC3)nc3cnc(-c4ccc(F)c(C(F)(F)F)c4)cn23)c(F)c1` [Example 35, 4-(2-cyclobutyl-6-(4-fluoro-3-(trifluoromethyl)phenyl)imidazo[1,2-a]pyrazin-3-yl)-3,5-difluorophenol] the “Cytotox HepG2” value was 5.7 µM.
For `Fc1c(-c2c(C(F)(F)F)nc3cnc(-c4cccc(OC(F)(F)F)c4)cn23)ccc2[nH]ncc12` [Example 72, 3-(4-Fluoro-1H-indazol-5-yl)-6-(3-trifluoromethoxy-phenyl)-2-trifluoromethyl-imidazo[1,2-a]pyrazine], the “Cytotox HepG2” value was 9.7 µM.
In the case of `Fc1ccc(-c2cn3c(-c4ccc5[nH]ncc5c4F)c(C(F)(F)F)nc3cn2)cc1CC(F)(F)F` [Example 69, 3-(4-Fluoro-1H-indazol-5-yl)-6-[4-fluoro-3-(2,2,2-trifluoro-ethyl)-phenyl]-2-trifluoromethyl-imidazo[1,2-a]pyrazine], the “Cytotox HepG2” value is reported as 5.3 µM.
`CC(C)c1nc2cnc(-c3ccc(F)c(C(F)(F)F)c3)cn2c1-c1ccc2[nH]ncc2c1F` [Example 2, 4-fluoro-5-{6-[4-fluoro-3-(trifluoromethyl)phenyl]-2-(propan-2-yl)imidazo[1,2-a]pyrazin-3-yl}-1H-indazole] was tested, and the “Cytotox HepG2” value was 10.4 µM.
`CC(C)Oc1cc(-c2cn3c(-c4ccc5[nH]ncc5c4F)c(C(F)(F)F)nc3cn2)ccc1F` [Example 81, 3-(4-Fluoro-1H-indazol-5-yl)-6-(4-fluoro-3-isopropoxy-phenyl)-2-trifluoromethyl-imidazo[1,2-a]pyrazine] was tested, and the “Cytotox HepG2” value was 9.2 µM.
With `CCc1nn2cnc(-c3ccc(F)c(C(F)(F)F)c3)cc2c1-c1c(F)cc(O)cc1F` [Example 48, 4-(2-ethyl-5-(4-fluoro-3-(trifluoromethyl)phenyl)pyrazolo[1,5-c]pyrimidin-3-yl)-3,5-difluorophenol] the “Cytotox HepG2” value was 9.8 µM.
With `CC(C)c1cccc(-c2cn3c(-c4ccc5[nH]ncc5c4F)c(C(F)(F)F)nc3cn2)c1` [Example 66, 3-(4-Fluoro-1H-indazol-5-yl)-6-(3-isopropyl-phenyl)-2-trifluoromethyl-imidazo[1,2-a]pyrazine] the “Cytotox HepG2” value was 12.9 µM.
In the case of `CC(C)c1nc2cnc(-c3cccc(C(F)(F)F)c3)cn2c1-c1ccc2[nH]ncc2c1F` [Example 21, 4-fluoro-5-{2-propan-2-yl-6-[3-trifluoromethylphenyl]imidazo[1,2-a]pyrazin-3-yl}-1H-indazole], the “Cytotox HepG2” value is reported as 15.1 µM.
`CC(C)c1nc2cnc(-c3cccc(C(F)(F)F)c3)cn2c1-c1c(F)cc(O)cc1F` [Example 19, 3,5-difluoro-4-[2-(propan-2-yl)-6-[3-(trifluoromethyl)phenyl]imidazo[1,2-a]pyrazin-3-yl]phenol] was tested, and the “Cytotox HepG2” value was 7.5 µM.
With `CC(C)c1cc(-c2cn3c(-c4ccc5[nH]ncc5c4F)c(C(F)(F)F)nc3cn2)ccn1` [Example 87, 3-(4-Fluoro-1H-indazol-5-yl)-6-(2-isopropyl-pyridin-4-yl)-2-trifluoromethyl-imidazo[1,2-a]pyrazine] the “Cytotox HepG2” value was 9.5 µM.
With `Cc1nc2cnc(-c3ccc(F)c(C(F)(F)F)c3)cn2c1-c1c(F)cc(O)cc1F` [Example 16, 3,5-difluoro-4-[2-methyl-6-[4-fluoro-3-(trifluoromethyl)phenyl]imidazo[1,2-a]pyrazin-3-yl]phenol] the “Cytotox HepG2” value was 7.6 µM.
With `CC(C)c1cc(-c2cn3c(-c4ccc5[nH]ncc5c4F)c(C4CCC4)nc3cn2)ccc1F` [Example 77, 2-Cyclobutyl-3-(4-fluoro-1H-indazol-5-yl)-6-(4-fluoro-3-isopropyl-phenyl)-imidazo[1,2-a]pyrazine] the “Cytotox HepG2” value was 10.8 µM.
With `CCc1nc2cnc(-c3ccc(F)c(C(C)C)c3)cn2c1-c1ccc2[nH]ncc2c1F` [Example 75, 2-Ethyl-3-(4-fluoro-1H-indazol-5-yl)-6-(4-fluoro-3-isopropyl-phenyl)-imidazo[1,2-a]pyrazine] the “Cytotox HepG2” value was 11.3 µM.
With `CC1(c2nc3cnc(-c4ccc(F)c(C(F)(F)F)c4)cn3c2-c2c(F)cc(O)cc2F)CC1` [Example 33, 3,5-difluoro-4-[2-(1-methyl-cycloprop-1-yl)-6-[4-fluoro-3-(trifluoromethyl)phenyl]imidazo[1,2-a]pyrazin-3-yl]phenol] the “Cytotox HepG2” value was 7.9 µM.
In the case of `Fc1c(-c2c(C3CC3)nc3cnc(-c4cccc(S(F)(F)(F)(F)F)c4)cn23)ccc2[nH]ncc12` [Example 46, 2-cyclopropyl-3-(4-fluoro-1H-indazol-5-yl)-6-(3-(pentafluoro-λ6-sulfaneyl)phenyl)imidazo[1,2-a]pyrazine], the “Cytotox HepG2” value is reported as 20.7 µM.
With `CC(C)c1nc2cnc(-c3cccc(C(F)(F)F)c3)nc2n1-c1ccc(O)cc1F` [Example 90, 3-fluoro-4-[8-(propan-2-yl)-2-[3-(trifluoromethyl)phenyl]-9H-purin-9-yl]phenol] the “Cytotox HepG2” value was 9.3 µM.
With `CCc1nc2cnc(-c3cccc(C(F)(F)C(F)(F)F)c3)cn2c1-c1c(F)cc(O)cc1F` [Example 52, 4-[2-Ethyl-6-(3-pentafluoroethyl-phenyl)-imidazo[1,2-a]pyrazin-3-yl]-3,5-difluoro-phenol] the “Cytotox HepG2” value was 8.0 µM.
With `Cc1nc2cnc(-c3cccc(C(F)(F)F)c3)cn2c1-c1c(F)cc(O)cc1F` [Example 15, 3,5-difluoro-4-[2-methyl-6-[3-(trifluoromethyl)phenyl]imidazo[1,2-a]pyrazin-3-yl]phenol] the “Cytotox HepG2” value was 8.4 µM.
With `Fc1ccc(-c2cn3c(-c4ccc5[nH]ncc5c4F)c(C(F)(F)F)nc3cn2)cc1C(F)(F)C(F)(F)F` [Example 63, 3-(4-Fluoro-1H-indazol-5-yl)-6-(4-fluoro-3-pentafluoroethyl-phenyl)-2-trifluoromethyl-imidazo[1,2-a]pyrazine] the “Cytotox HepG2” value was 11.7 µM.
`Cc1nc2cnc(-c3ccc(F)c(C(F)(F)C(F)(F)F)c3)cn2c1-c1c(F)cc(O)cc1F` [Example 53, 3,5-Difluoro-4-[6-(4-fluoro-3-pentafluoroethyl-phenyl)-2-methyl-imidazo[1,2-a]pyrazin-3-yl]-phenol] was tested, and the “Cytotox HepG2” value was 8.8 µM.
